These are literature values, as cited in publication PMC12424150 (Drug Delivery, 2025).

The conditions of data set [1]: ref Dhillon [2018].
Details of data set [2]: method as in Wharton et al. [2023]; Lingvay et al. [2024]. The following applies: ref Wharton et al. [2023]; Lingvay et al. [2024].

For the compound `CC[C@H](C)[C@H](NC(=O)[C@H](Cc1ccccc1)NC(=O)[C@H](CCC(=O)O)NC(=O)[C@H](CCCCNC(=O)COCCOCCNC(=O)COCCOCCNC(=O)CC[C@H](NC(=O)CCCCCCCCCCCCCCCCC(=O)O)C(=O)O)NC(=O)[C@H](C)NC(=O)[C@H](C)NC(=O)[C@H](CCC(N)=O)NC(=O)CNC(=O)[C@H](CCC(=O)O)NC(=O)[C@H](CC(C)C)NC(=O)[C@H](Cc1ccc(O)cc1)NC(=O)[C@H](CO)NC(=O)[C@H](CO)NC(=O)[C@@H](NC(=O)[C@H](CC(=O)O)NC(=O)[C@H](CO)NC(=O)[C@@H](NC(=O)[C@H](Cc1ccccc1)NC(=O)[C@@H](NC(=O)CNC(=O)[C@H](CCC(=O)O)NC(=O)C(C)(C)NC(=O)[C@@H](N)Cc1cnc[nH]1)[C@@H](C)O)[C@@H](C)O)C(C)C)C(=O)N[C@@H](C)C(=O)N[C@@H](Cc1c[nH]c2ccccc12)C(=O)N[C@@H](CC(C)C)C(=O)N[C@H](C(=O)N[C@@H](CCCNC(=N)N)C(=O)NCC(=O)N[C@@H](CCCNC(=N)N)C(=O)NCC(=O)O)C(C)C` [semaglutide], the half-life in humans in data set [1] is 165 to 183 h.
Take Glucagon-like peptide-1 [GLP-1]: in data set [2], the average weight loss result was “up to 15%”.
